Here are results for 41 molecules from patent publication US20150018546A1, “HETEROCYCLIC COMPOUND HAVING ANTI-HIV ACTIVITY” (TOYAMA CHEMICAL CO., LTD., priority 2012, published 2015).

This experiment concerns HIV-1 (JRCSF). Kind of experiment: Anti-HIV activity in MaRBLE cells infected with HIV-1 (JRCSF), luciferase readout. Format: cell-based. The note with it: Human immunodeficiency virus 1, 168 h; MaRBLE cells (human T lymphocyte-derived HPB-M(a)) infected with HIV-1 (JRCSF); 7 days culture; rate of viral proliferation by luciferase activity; read-out: Anti-HIV activity IC50. The protocol:
This test was conducted with reference to Journal of Clinical Microbiology, 2007, Vol. 45, p. 477-487.
The anti-HIV activity was evaluated using MaRBLE cells in which a luciferase gene to be expressed under the control of HIV-1 LTR and a CCR5 gene, etc. were introduced in human T lymphocyte-derived HPB-M(a).
A fresh medium or each appropriately diluted test compound was dispensed to 96-well plates to prepare drug solution-containing plates.
The MaRBLE cells were suspended in RPMI1640 containing 10% FCS (fetal calf serum) and penicillin/streptomycin and infected with HIV-1 (JRCSF). Then, the cells were inoculated to the drug solution-containing plates (1×10^5 cells/well). The same number of uninfected cells were inoculated as a control group to the drug solution-containing plates.
After culture at 37° C. for 7 days in a 5% CO2 atmosphere, the intracellular luciferase activity was measured using Steady-Glo Luciferase assay system (Promega Corp.).
The rate of viral proliferation was determined according to the following expression:
Rate of viral proliferation(%)=(A/B)×100
A=(Firefly luciferase activity of the compound-supplemented well)−(Firefly luciferase activity of the uninfected cells)
B=(Firefly luciferase activity of the compound-free well)−(Firefly luciferase activity of the uninfected cells)
IC50 of the compound was calculated by a plot with concentration as the logarithm and the rate of viral proliferation as the real part using the FORECAST function (linear regression method) of Microsoft Office Excel 2003.

For orientation: IC50 means the midpoint of a concentration-inhibition curve. As to `COc1ccc(CNc2cc(=O)n(O)c3ncncc23)cc1` [Example 1, 8-hydroxy-5-((4-methoxybenzyl)amino)pyrido[2,3-d]pyrimidin-7(8H)-one], the half-maximal inhibitory concentration (IC50) was 110 nM.

As to `O=c1cc(NCc2ccccc2)c2cncnc2n1O` [Example 2, 5-(benzylamino)-8-hydroxypyrido[2,3-d]pyrimidin-7(8H)-one], the IC50 was found to be 120 nM.

In the case of `O=c1cc(NCc2ccc3ccccc3c2)c2cncnc2n1O` [Example 3, 8-hydroxy-5-((2-naphthylmethyl)amino)pyrido[2,3-d]pyrimidin-7(8H)-one], the IC50 is 190 nM.

Turning to `O=c1cc(NCC2CCCCC2)c2cncnc2n1O` [Example 4, 5-((cyclohexylmethyl)amino)-8-hydroxypyrido[2,3-d]pyrimidin-7(8H)-one], the IC50 was determined as 410 nM.

As to `O=c1cc(NCc2ccccn2)c2cncnc2n1O` [Example 5, 8-hydroxy-5-(((pyridin-2-yl)methyl)amino)pyrido[2,3-d]pyrimidin-7(8H)-one], the IC50 was determined as 210 nM.

For the molecule `O=c1cc(NCc2ccc(F)cc2F)c2cncnc2n1O` [Example 6, 5-((2,4-difluorobenzyl)amino)-8-hydroxypyrido[2,3-d]pyrimidin-7(8H)-one], the IC50 amounted to 180 nM.

Regarding `CC(Nc1cc(=O)n(O)c2ncncc12)c1ccccc1` (centres unmarked) [Example 7, 8-hydroxy-5-((1-phenylethyl)amino)pyrido[2,3-d]pyrimidin-7(8H)-one], the concentration for half-maximal inhibition (IC50) was determined as 170 nM.

In the case of `O=c1cc(NC2CCCCC2)c2cncnc2n1O` [Example 8, 5-(cyclohexylamino)-8-hydroxypyrido[2,3-d]pyrimidin-7(8H)-one], the concentration for half-maximal inhibition (IC50) was 220 nM.

`O=c1cc(NC2Cc3ccccc3C2)c2cncnc2n1O` [Example 10]: the IC50 came out at 530 nM.

Consider `O=c1cc(Nc2ccccc2)c2cncnc2n1O` [Example 16, 5-anilino-8-hydroxypyrido[2,3-d]pyrimidin-7(8H)-one], for which the IC50 worked out at 280 nM.

With `O=c1cc(NCCc2ccccc2)c2cncnc2n1O` [Example 17, 8-hydroxy-5-((2-phenylethyl)amino)pyrido[2,3-d]pyrimidin-7(8H)-one], the IC50 stood at 690 nM.

Regarding `O=c1cc(NCc2cccnc2)c2cncnc2n1O` [Example 18, 8-hydroxy-5-((pyridin-3-ylmethyl)amino)pyrido[2,3-d]pyrimidin-7(8H)-one], the IC50 worked out at 230 nM.

As to `Cc1ncnc2c1c(O)cc(=O)n2O` [Example 21, 5,8-dihydroxy-4-methylpyrido[2,3-d]pyrimidin-7(8H)-one], the IC50 was determined as 880 nM.

Regarding `Cc1ncnc2c1c(NCc1ccccc1)cc(=O)n2O` [Example 22, 5-(benzylamino)-8-hydroxy-4-methylpyrido[2,3-d]pyrimidin-7(8H)-one], the IC50 came to 47 nM.

As for `Cc1ncnc2c1c(NCc1cccc(C(F)(F)F)c1)cc(=O)n2O` [Example 28, 8-hydroxy-4-methyl-5-((3-(trifluoromethyl)benzyl)amino)pyrido[2,3-d]pyrimidin-7(8H)-one], the 50% inhibitory concentration (IC50) amounted to 43 nM.

Consider `Cc1ncnc2c1c(NCc1cccc(N(C)C)c1)cc(=O)n2O` [Example 29, 5-((3-(dimethylamino)benzyl)amino)-8-hydroxy-4-methylpyrido[2,3-d]pyrimidin-7(8H)-one], for which the concentration for half-maximal inhibition (IC50) was 50 nM.

In the case of `Cc1ncnc2c1c(NCc1ccc(N(C)C)cc1)cc(=O)n2O` [Example 30, 5-((4-(dimethylamino)benzyl)amino)-8-hydroxy-4-methylpyrido[2,3-d]pyrimidin-7(8H)-one], the IC50 was found to be 76 nM.

Take `COc1cccc(CNc2cc(=O)n(O)c3ncnc(C)c23)c1` [Example 31, 8-hydroxy-5-((3-methoxybenzyl)amino)-4-methylpyrido[2,3-d]pyrimidin-7(8H)-one]: the IC50 came to 230 nM.

Turning to `COc1ccc(CNc2cc(=O)n(O)c3ncnc(C)c23)cc1` [Example 32, 8-hydroxy-5-((4-methoxybenzyl)amino)-4-methylpyrido[2,3-d]pyrimidin-7(8H)-one], the half-maximal inhibitory concentration (IC50) turned out to be 29 nM.

`COc1ccccc1CNc1cc(=O)n(O)c2ncnc(C)c12` [Example 33, 8-hydroxy-5-((2-methoxybenzyl)amino)-4-methylpyrido[2,3-d]pyrimidin-7(8H)-one]: the half-inhibitory concentration (IC50) is 53 nM.

Regarding `Cc1ncnc2c1c(NCc1cccc(C#N)c1)cc(=O)n2OCc1ccccc1` [Example 34, 3-(((8-(benzyloxy)-4-methyl-7-oxo-7,8-dihydropyrido[2,3-d]pyrimidin-5-yl)amino)methyl)benzonitrile], the IC50 came out at 65 nM.

For `Cc1ncnc2c1c(NCC1CCCCC1)cc(=O)n2O` [Example 35, 5-((cyclohexylmethyl)amino)-8-hydroxy-4-methylpyrido[2,3-d]pyrimidin-7(8H)-one], the concentration for half-maximal inhibition (IC50) is 68 nM.

Regarding `Cc1ncnc2c1c(NCc1ccccc1F)cc(=O)n2O` [Example 36, 5-((2-fluorobenzyl)amino)-8-hydroxy-4-methylpyrido[2,3-d]pyrimidin-7(8H)-one], the half-maximal inhibitory concentration (IC50) worked out at 86 nM.

With `Cc1ncnc2c1c(NC1CCCCC1)cc(=O)n2O` [Example 37, 5-(cyclohexylamino)-8-hydroxy-4-methylpyrido[2,3-d]pyrimidin-7(8H)-one], the IC50 came to 110 nM.

For `COc1ccc(CNc2cc(=O)n(O)c3ncnc(C)c23)c(OC)c1` [Example 38, 5-((2,4-dimethoxybenzyl)amino)-8-hydroxy-4-methylpyrido[2,3-d]pyrimidin-7(8H)-one], the IC50 was determined as 42 nM.

For `CCN(CC)c1ccc(CNc2cc(=O)n(O)c3ncnc(C)c23)cc1` [Example 39, 5-((4-(diethylamino)benzyl)amino)-8-hydroxy-4-methylpyrido[2,3-d]pyrimidin-7(8H)-one], the concentration for half-maximal inhibition (IC50) turned out to be 62 nM.

For `Cc1ncnc2c1c(NCc1ccc(N(C)C)nc1)cc(=O)n2O` [Example 40, 5-(((6-(dimethylamino)pyridin-3-yl)methyl)amino)-8-hydroxy-4-methylpyrido[2,3-d]pyrimidin-7(8H)-one], the IC50 came out at 48 nM.

For the molecule `Cc1ncnc2c1c(NCc1cccnc1N(C)C)cc(=O)n2O` [Example 41, 5-(((2-(dimethylamino)pyridin-3-yl)methyl)amino)-8-hydroxy-4-methylpyrido[2,3-d]pyrimidin-7(8H)-one], the IC50 worked out at 48 nM.

Regarding `Cc1ncnc2c1c(NCc1ccc(C#N)cc1)cc(=O)n2O` [Example 42, 4-(((8-hydroxy-4-methyl-7-oxo-7,8-dihydropyrido[2,3-d]pyrimidin-5-yl)amino)methyl)benzonitrile], the IC50 worked out at 72 nM.

On to `Cc1ccc(CNc2cc(=O)n(O)c3ncnc(C)c23)cc1` [Example 43, 8-hydroxy-4-methyl-5-((4-methylbenzyl)amino)pyrido[2,3-d]pyrimidin-7(8H)-one], for which the IC50 was 39 nM.

For the molecule `Cc1ncnc2c1c(NCc1ccc(Cl)cc1)cc(=O)n2O` [Example 44, 5-((4-chlorobenzyl)amino)-8-hydroxy-4-methylpyrido[2,3-d]pyrimidin-7(8H)-one], the IC50 was 29 nM.

Turning to `Cc1ncnc2c1c(NCc1cccc(OC(F)(F)F)c1)cc(=O)n2O` [Example 45, 8-hydroxy-4-methyl-5-((3-(trifluoromethoxy)benzyl)amino)pyrido[2,3-d]pyrimidin-7(8H)-one], the IC50 came to 170 nM.

Regarding `Cc1ccccc1CNc1cc(=O)n(O)c2ncnc(C)c12` [Example 46, 8-hydroxy-4-methyl-5-((2-methylbenzyl)amino)pyrido[2,3-d]pyrimidin-7(8H)-one], the IC50 came out at 40 nM.

Consider `Cc1ncnc2c1c(NCc1cccc(Cl)c1)cc(=O)n2O` [Example 47, 5-((3-chlorobenzyl)amino)-8-hydroxy-4-methylpyrido[2,3-d]pyrimidin-7(8H)-one], for which the IC50 is 59 nM.

Turning to `Cc1ncccc1CNc1cc(=O)n(O)c2ncnc(C)c12` [Example 48, 8-hydroxy-4-methyl-5-(((2-methylpyridin-3-yl)methyl)amino)pyrido[2,3-d]pyrimidin-7(8H)-one], the concentration for half-maximal inhibition (IC50) was found to be 93 nM.

On to `Cc1ncnc2c1c(NCc1ccc3c(c1)OCO3)cc(=O)n2O` [Example 49], for which the half-inhibitory concentration (IC50) was 61 nM.

Consider `Cc1ccc(CNc2cc(=O)n(O)c3ncnc(C)c23)cn1` [Example 50, 8-hydroxy-4-methyl-5-(((6-methylpyridin-3-yl)methyl)amino)pyrido[2,3-d]pyrimidin-7(8H)-one], for which the IC50 turned out to be 110 nM.

As for `Cc1ncnc2c1c(NCc1cncc(F)c1)cc(=O)n2O` [Example 51, 5-(((5-fluoropyridin-3-yl)methyl)amino)-8-hydroxy-4-methylpyrido[2,3-d]pyrimidin-7(8H)-one], the concentration for half-maximal inhibition (IC50) was 97 nM.

For the molecule `Cc1ncnc2c1c(NCc1ccc3c(c1)OCCO3)cc(=O)n2O` [Example 52, 5-(((2,3-dihydro-1,4-benzodioxin-6-yl)methyl)amino)-8-hydroxy-4-methylpyrido[2,3-d]pyrimidin-7(8H)-one], the IC50 amounted to 20 nM.

As for `Cc1ncnc2c1c(NC(C)c1cccnc1)cc(=O)n2O` (centres unmarked) [Example 53, 8-hydroxy-4-methyl-5-((1-(pyridin-3-yl)ethyl)amino)pyrido[2,3-d]pyrimidin-7(8H)-one], the half-inhibitory concentration (IC50) came to 80 nM.

Regarding `Cc1ccncc1CNc1cc(=O)n(O)c2ncnc(C)c12` [Example 54, 8-hydroxy-4-methyl-5-(((4-methylpyridin-3-yl)methyl)amino)pyrido[2,3-d]pyrimidin-7(8H)-one], the IC50 is 110 nM.
